According to patent publication US5304565A, “Nitrogen containing heterocyclic compounds, their production and use” (Takeda Chemical Industries, Ltd., priority 1990, dated 1994):

Tests used:
[1] = target: T1, A-II-receptor (membrane fraction of bovine adrenal cortex) (Bos taurus, UniProt P25104); assay: Inhibition of binding of angiotensin-II to angiotensin receptor (radio receptor assay, 125I-A-II); details: room temperature, one hour; for inhibition at 1 µM: 10^-6 M; for inhibition at 0.1 µM: 10^-7 M
T1 construct: prepared from the membrane fraction of bovine adrenal cortex; from tissue; host or cells: bovine adrenal cortex, membrane fraction
T1 sequence (P25104 1-359): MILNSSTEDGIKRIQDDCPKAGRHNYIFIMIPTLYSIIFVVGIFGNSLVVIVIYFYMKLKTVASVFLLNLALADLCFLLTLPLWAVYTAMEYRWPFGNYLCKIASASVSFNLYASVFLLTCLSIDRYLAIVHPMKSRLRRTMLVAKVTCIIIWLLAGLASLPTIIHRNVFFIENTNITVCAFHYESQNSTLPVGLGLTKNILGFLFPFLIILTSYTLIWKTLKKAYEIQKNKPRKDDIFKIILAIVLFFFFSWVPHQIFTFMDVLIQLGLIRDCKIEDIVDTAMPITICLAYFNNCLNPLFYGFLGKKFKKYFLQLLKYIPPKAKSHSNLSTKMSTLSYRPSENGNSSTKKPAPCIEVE
Experimental: An experiment of inhibition on the binding of angiotensin-II (A-II) to A-II-receptor was conducted by modifying the method of Douglas et al. [Endocrinology, 102, 685-696 (1978)]. An A-II-receptor was prepared from the membrane fraction of bovine adrenal cortex.
The compound of the present invention (10^-9 M to 3×10^-5 M) and ^125 I-A-II (1.85 kBq/50 μl) were added to the receptor membrane fraction, and the mixture was incubated at room temperature for one hour. The receptor-bound and free ^125 I-A-II were separated through a filter (Whatman GF/B filter), and the radioactivity of ^125 I-A-II bound to the receptor was measured.

[2] = tested on: A-II-induced pressor action; assay: Inhibitory effect on pressor action of A-II (100 ng/kg i.v.) after oral administration; assay type: in vivo, Jcl: SD rats (9 week old, male); details: Rattus norvegicus, 30 mg/kg p.o., SD rats, read-out: Pressor Response (30 mg/Kg, p.o.) (% Inhibition)
Experimental: Jcl: SD rats (9 week old, male) were used. On the day previous to the experiment, these animals were applied with cannulation into the femoral artery and vein under anesthesia with pentobarbital Na. The animals were fasted but allowed free access to drinking water until the experiment was started. Just on the day of conducting the experiment, the artery cannula was connected with a blood-pressure transducer, and the average blood pressure was recorded by means of polygraph. Before administration of the drug, the pressor action due to intravenous administration of A-II (100 ng/kg) as the control was measured. The drugs were orally administered, and then, at each point of the measurement, A-II was administered intravenously, and the pressor action was similarly measured. By comparing the pressor action before and after administration of the drug, the precent inhibition by the drug on A-II-induced pressor action was evaluated.

| inhibition at 1 µM [1] | inhibition at 0.1 µM [1] | SMILES | inhibition in vivo at 30 mg/kg [2] |
| --- | --- | --- | --- |
| 74% | 36% | CCCCc1nc2cccc(C)c2c(=O)n1Cc1ccc(-c2ccccc2-c2nn[nH]n2)cc1 [Working Example 26] | ≥ 70% |
| 89% | 59% | CCCCc1nc2ccc(OCC(=O)OC)cc2c(=O)n1Cc1ccc(-c2ccccc2-c2nn[nH]n2)cc1 [Working Example 38] | ≥ 70% |
| 41% | 3% | CCCCc1nc2cc([N+](=O)[O-])ccc2c(=O)n1Cc1ccc(-c2ccccc2-c2nn[nH]n2)cc1 [Working Example 24] |  |
| 71% | 28% | CCCCCc1cc(=O)c(C(=O)OCC)cn1Cc1ccc(-c2ccccc2-c2nn[nH]n2)cc1 [Working Example 3] |  |
| 92% | 69% | CCCCc1nc2ccc(OCCOC(C)=O)cc2c(=O)n1Cc1ccc(-c2ccccc2-c2nn[nH]n2)cc1 [Working Example 39] | ≥ 70% |
| 88% | 74% | CCCCc1nc2cccc(CO)c2c(=O)n1Cc1ccc(-c2ccccc2-c2nnn[nH]2)cc1 [Working Example 54, 2-Butyl-5-hydroxymethyl-3-[[2'-(1H-tetrazol-5-yl)biphenyl-4-yl]methyl]-4(3H)-quinazolinone] | ≥ 70% |
| 92% | 66% | CCCCC(=O)Oc1ccc2nc(CCCC)n(Cc3ccc(-c4ccccc4-c4nn[nH]n4)cc3)c(=O)c2c1 [Working Example 29] | ≥ 70% |
| 67% | 25% | CCCCc1cc(=O)c(C(=O)OCC)cn1Cc1ccc(-c2ccccc2-c2nnn[nH]2)cc1 [Working Example 2, Ethyl 6-n-butyl-4-oxo-1-[[2'-(1H-tetrazol-5-yl)biphenyl-4-yl]methyl]-1,4-dihydronicotinate] |  |
| 97% | 77% | CCCCc1nc2ccc(OC)cc2c(=O)n1Cc1ccc(-c2ccccc2-c2nn[nH]n2)cc1 [Working Example 37] | ≥ 70% |
| 94% | 75% | CCCCc1nc2ccc(OCCO)cc2c(=O)n1Cc1ccc(-c2ccccc2-c2nnn[nH]2)cc1 [Working Example 55, 2-Butyl-6-(2-hydroxyethyloxy)-3-[[2'-(1H-tetrazol-5-yl)biphenyl-4-yl]-methyl]-4(3H)-quinazolinone] | ≥ 70% |
| 67% | 24% | CCCCc1cc(=O)c(C(=O)OCC)cn1Cc1ccc(-c2ccccc2C(=O)O)cc1 [Working Example 1, Ethyl 6-n-butyl-1-[(2'-carboxybiphenyl-4-yl)methyl]-4-oxo-1,4-dihydronicotinate] |  |
| 85% | 46% | CCCCc1nc2ccccc2c(=O)n1Cc1ccc(-c2ccccc2-c2nnn[nH]2)cc1 [Working Example 23, 2-n-Butyl-3-[[2'-(1H-tetrazol-5-yl)biphenyl-4-yl]methyl]-4(3H)-quinazolinon] | ≥ 70% |
| 70% | 29% | CCCCc1nc(=O)c(C(=O)OCC)cn1Cc1ccc(-c2ccccc2-c2nnn[nH]2)cc1 [Working Example 11, Ethyl 2-n-butyl-4-oxo-1-[[2'-(1H-tetrazol-5-yl)biphenyl-4-yl]methyl]-1,4-dihydropyrimidine-5-carboxylate] |  |
| 83% | 48% | CCCc1nc2ccc(OCCOC(=O)c3ccccc3)cc2c(=O)n1Cc1ccc(-c2ccccc2-c2nn[nH]n2)cc1 [Working Example 41] | ≥ 70% |
| 88% | 63% | CCCc1nc2ccc(OCC(=O)NCc3ccccc3)cc2c(=O)n1Cc1ccc(-c2ccccc2-c2nn[nH]n2)cc1 [Working Example 49] |  |
| 72% | 31% | CCCc1cc(=O)c(C(=O)OCC)cn1Cc1ccc(-c2ccccc2-c2nn[nH]n2)cc1 [Working Example 4] |  |
| 73% | 30% | CCCCc1ncc([N+](=O)[O-])c(=O)n1Cc1ccc(-c2ccccc2-c2nn[nH]n2)cc1 [Working Example 13, 2-n-Butyl-5-nitro-3-[[2'-(1H-tetrazol-5-yl)biphenyl-4-yl-]methyl]-4(3H)-pyrimidone] |  |
| 58% | 18% | CCCCc1nc2cc(Cl)ccc2c(=O)n1Cc1ccc(-c2ccccc2-c2nn[nH]n2)cc1 [Working Example 25] |  |
| 95% | 73% | CCCCc1nc2cccc(COC)c2c(=O)n1Cc1ccc(-c2ccccc2-c2nn[nH]n2)cc1 [Working Example 50] |  |
| 68% | 31% | CCCCc1nc(CC(=O)OC)cc(=O)n1Cc1ccc(-c2ccccc2-c2nnn[nH]2)cc1 [Working Example 16, 2-n-Butyl-6-methoxycarbonylmethyl-3-[[2'-(1H-tetrazol-5-yl)biphenyl-4-yl]methyl]-4(3H)-pyrimidone] |  |
| 93% | 72% | CCCCc1nc2cccc(COC(C)=O)c2c(=O)n1Cc1ccc(-c2ccccc2-c2nn[nH]n2)cc1 [Working Example 32] | ≥ 70% |
| 75% | 32% | CCCCc1ncc(C(=O)OCC)c(=O)n1Cc1ccc(-c2ccccc2-c2nnn[nH]2)cc1 [Working Example 10, Ethyl 2-n-butyl-4-oxo-3-[[2'-(1H-tetrazol-5-yl)biphenyl-4-yl]methyl]-3,4-dihydropyrimidine-5-carboxylate] |  |
| 92% | 76% | CCCc1nc2ccc(OCCO)cc2c(=O)n1Cc1ccc(-c2ccccc2-c2nnn[nH]2)cc1 [Working Example 53, 6-(2-Hydroxyethyloxy)-2-propyl-3-[[2'-(1H-tetrazol-5-yl)biphenyl-4-yl]methyl]-4(3H)-quinazolinone] | ≥ 70% |
| 95% | 81% | CCCc1nc2ccc(OCC(=O)N3CCOCC3)cc2c(=O)n1Cc1ccc(-c2ccccc2-c2nn[nH]n2)cc1 [Working Example 48] |  |
| 73% | 29% | CCCCc1nc(COC)cc(=O)n1Cc1ccc(-c2ccccc2-c2nnn[nH]2)cc1 [Working Example 8, 2-n-Butyl-3-[[2'-(1H-tetrazol-5-yl)biphenyl-4-yl]methyl]-6-methoxymethyl-4(3H)-pyrimidone] |  |
